Molecules are shown by their SMILES. Where a name gives a salt, the structure may show the parent alone. Read-outs that look alike come from different tables or passages of the source.

Data on ten compounds can be found in patent publication US20250205270A1, “ANTIBODY-DRUG CONJUGATE PRECURSORS COMPRISING A CYCLIC DINUCLEOTIDE” (TAKEDA PHARMACEUTICAL COMPANY LIMITED, priority 2016, published 2025).

In series [1] the test system is phosphorylated IRF3 protein in FaDu cell. In words: Phosphorylated IRF3 protein detection in FaDu cell. Particulars: at 30 μM; 6 hr; 2′,3′-cGAMP 30 μM = 100%. The format is cell-based, human. Here is the method: Human larynx cancer cell line FaDu cell (ATCC) was seeded, the medium was replaced with serum free medium one day after the seeding. After the replacement, the cell was cultured for one day, and to the cell were added the natural ligand 2′,3′-cGAMIP (the final concentration; 30 μM) and test compound (the final concentration; 15 μM or 30 μM). 6 hr after the addition, the cell was washed with PBS, the cell extract was prepared, and the phosphorylated IRF3 protein was detected by ELISA method or Western blotting method. The IRF3 protein phosphorylation activity of the test compound was calculated when the value in the sample with adding the natural ligand 2′,3′-cGAMP at the final concentration of 30 μM was considered as 100%.

The target of series [2] is WT STING (Homo sapiens (Human), UniProt Q86WV6, H232R). The format is cell-based.
Sequence of WT STING (Q86WV6 whole entry H232R): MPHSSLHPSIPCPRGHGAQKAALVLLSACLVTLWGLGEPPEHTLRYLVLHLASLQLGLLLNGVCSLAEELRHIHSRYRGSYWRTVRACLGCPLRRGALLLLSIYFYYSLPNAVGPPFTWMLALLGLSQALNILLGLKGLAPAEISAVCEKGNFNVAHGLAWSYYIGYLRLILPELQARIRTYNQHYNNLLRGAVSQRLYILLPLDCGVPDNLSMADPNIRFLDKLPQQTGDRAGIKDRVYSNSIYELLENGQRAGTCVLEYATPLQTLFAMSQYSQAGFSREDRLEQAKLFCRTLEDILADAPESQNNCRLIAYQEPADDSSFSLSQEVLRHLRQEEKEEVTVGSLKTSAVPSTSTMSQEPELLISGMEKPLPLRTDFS
Series [3] concerns THP1-Dual cells (ISG54 promoter Lucia luciferase reporter). Nature of the series: THP-1 Dual Lucia reporter gene assay. In kind it is cell-based, human. Conditions: 20 hours incubation, read-out: THP-1 Dual cell EC50 (μM) Reporter. Here is the method:
THP1-Dual™ cells (InvivoGen #thpd-nfis) were derived from the human THP-1 monocyte cell line by stable integration of the Lucia luciferase gene, a secreted luciferase reporter gene, under the control of an ISG54 (interferon-stimulated gene) minimal promoter in conjunction with five interferon (IFN)-stimulated response elements. On the day of experiment, the cells were plated to a black, 384-well plate (Corning 356697) at 7500 cells/25 μL per well density in growth media (RPMI 1640, 2 mM L-glutamine, 25 mM HEPES, 10% heat-inactivated fetal bovine serum, 100 μg/mL Normocin™, 100 U/mL-100 μg/mL Pen-Strep, 10 μg/mL of blasticidin, and 100 μg/mL of Zeocin). The cell plates were dosed with 62.5 nL of the testing compounds, and then incubated at 37° C. for 20 hours. At the end of the incubation, 15 μL/well of the QUANTI-Luc™ (InvivoGen #rep-qlc1) were added, and luminescence was measured immediately using the LeadSeeker.

Series [4] in a line: Human plasma stability assay. The format is in vitro ADME. Particulars: 37° C., 0-24 hours, LC/MS/MS. As for the experimental part: The compound was incubated in heparinized human plasma at 37° C. for 0, 1, 2, 4, 8 and 24 hours, and the change in compound concentration was measured by LC/MS/MS method. The elimination rate constant (=k(/h)) was calculated based on the fitted curve assuming the exponential decrease of concentration as follows; concentration at time x=initial concentration*exp(−k*x).

The subject of series [5] is colon carcinoma CT-26 syngeneic mice model. In words: Syngeneic tumor model, anti-tumor effect, CT-26. The format is in vivo, mouse. Particulars: Balb/C mice; intravenous, every 3 days, 3 times; Ex3a 30 mg/kg, Ex14 1.0 mg/kg. As for the experimental part: (§1) Ex14 and Ex3a were tested in syngeneic tumor models in mice. […] See FIG. 8 and FIG. 9 for the anti-tumor effect colon carcinoma CT-26 syngeneic mice model, and FIG. 10 and FIG. 11 for the anti-tumor effect in the […] B16F10 syngeneic mice model.
(§2) 8×10^4 B16F10 and 2×10^5 CT-26 mouse tumor cells were subcutaneously implanted in the flank of female C57BL/6 (B16F10) and Balb/C (CT-26) mice (n=7 per group). Vehicle (1×PBS), compound Ex3a (30 mg/kg) or Ex14 (1.0 mg/kg) were intravenously administered (final volume of 100 μL) to tumor-bearing mice once the tumor volume has reached 100 mm^3 (Day 0). Vehicle, Ex3a or Ex14 were given every 3 days for a total of 3 doses (q3dx3). Tumor and body weight measurements were taken three times per week using vernier calipers and mettler scale, respectively. Tumor volumes were determined by multiplying the square of the width (‘W’), measured along the short axis of the tumor, by one-half the length (‘L’) measured along the […]

The test system of series [6] is B16F10 syngeneic mice model. Nature of the series: Syngeneic tumor model, anti-tumor effect, B16F10. In kind it is in vivo, mouse. Particulars: C57BL/6 mice; intravenous, every 3 days, 3 times; Ex3a 30 mg/kg, Ex14 1.0 mg/kg. Here is the method: as §1, §2

Turning to `Nc1ncnc2c1ncn2[C@@H]1O[C@@H]2COP(=O)(O)O[C@@H]3[C@H](O)[C@@H](COP(=O)(O)O[C@H]2[C@H]1F)O[C@H]3n1cc(F)c2c(=O)[nH]cnc21` [Example 1, 7-((5R,7R,8R,12aR,14R,15R,15aR,16R)-14-(6-amino-9H-purin-9-yl)-15-fluoro-2,10,16-trihydroxy-2,10-dioxidooctahydro-12H-5,8-methanofuro[3,2-1][1,3,6,9,11,2,10]pentaoxadiphosphacyclotetradecin-7-yl)-5-fluoro-3,7-dihydro-4H-pyrrolo[2,3-d]pyrimidin-4-one di-triethylamine Salt], the “activity level of test compound, IRF3 protein phosphorylation test” value (“activity level of test compound” for short) in series [1] is reported as 468.8% at 30 μM.

As to `Nc1ncnc2c1ncn2[C@@H]1O[C@@H]2COP(=O)(O)O[C@@H]3[C@H](O)[C@@H](COP(=O)(S)O[C@H]2[C@H]1F)O[C@H]3n1cc(F)c2c(=O)[nH]cnc21` (stereo partly drawn) [Example 2, 7-((5R,7R,8R,12aR,14R,15R,15aR,16R)-14-(6-amino-9H-purin-9-yl)-15-fluoro-10,16-dihydroxy-2,10-dioxido-2-sulfanyloctahydro-12H-5,8-methanofuro[3,2-1][1,3,6,9,11,2,10]pentaoxadiphosphacyclotetradecin-7-yl)-5-fluoro-3,7-dihydro-4H-pyrrolo[2,3-d]pyrimidin-4-one di-triethylamine Salt (Optical Isomer)], the “activity level against WT STING of test compound (30 μM)” value (from here on “activity level against WT STING”) in series [2] is 112%. Further, the “activity level of test compound” value in series [1] is 88.7% at 30 μM.

With `Nc1ncnc2c1ncn2[C@@H]1O[C@@H]2COP(=O)(O)O[C@@H]3[C@H](O)[C@@H](COP(=O)(S)O[C@H]2[C@H]1F)O[C@H]3n1cc(F)c2c(=O)[nH]cnc21` (stereo partly drawn) [Example 3, 7-((2R,5R,7R,8R,12aR,14R,15R,15aR,16R)-14-(6-amino-9H-purin-9-yl)-15-fluoro-10,16-dihydroxy-2,10-dioxido-2-sulfanyloctahydro-12H-5,8-methanofuro[3,2-1][1,3,6,9,11,2,10]pentaoxadiphosphacyclotetradecin-7-yl)-5-fluoro-3,7-dihydro-4H-pyrrolo[2,3-d]pyrimidin-4-one 1.7 Triethylamine Salt], the “activity level of test compound” value in series [1] was 464.6% at 30 μM.

In general, EC50 refers to the concentration at which the effect is half-maximal. For the compound `Nc1ncnc2c1ncn2[C@@H]1O[C@@H]2COP(=O)(O)O[C@@H]3[C@H](O)[C@@H](COP(=O)(S)O[C@H]2[C@H]1F)O[C@H]3n1cc(F)c2c(=O)[nH]cnc21` (stereo partly drawn) [Example 3a, 7-((2R,5R,7R,8R,12aR,14R,15R,15aR,16R)-14-(6-amino-9H-purin-9-yl)-15-fluoro-10,16-dihydroxy-2,10-dioxido-2-sulfanyloctahydro-12H-5,8-methanofuro[3,2-1][1,3,6,9,11,2,10]pentaoxadiphosphacyclotetradecin-7-yl)-5-fluoro-3,7-dihydro-4H-pyrrolo[2,3-d]pyrimidin-4-one Disodium Salt], the EC50 in series [2] (with digitonin, read-out: STING-293T cell EC50 (μM) Reporter with digitonin (B)) stood at 0.13 µM; in series [3] (Homo sapiens, THP1-Dual) it was 5.6 µM. Also, in series [4], the “Human plasma stability (/h), elimination rate constant k” value (“Human plasma stability (/h)” below) is 0.58 h⁻¹. The “anti-tumor effect (tumor volume)” value in series [5] and in series [6] was “anti-tumor effects were observed” throughout.

In the case of `Nc1ncnc2c1ncn2[C@@H]1O[C@@H]2COP(=O)(S)O[C@@H]3[C@H](O)[C@@H](COP(=O)(S)O[C@H]2[C@H]1O)O[C@H]3n1cc(F)c2c(=O)[nH]cnc21` (stereo partly drawn) [Example 5, 7-((5R,7R,8R,12aR,14R,15R,15aS,16R)-14-(6-amino-9H-purin-9-yl)-15,16-dihydroxy-2,10-dioxido-2,10-disulfanyloctahydro-12H-5,8-methanofuro[3,2-1][1,3,6,9,11,2,10]pentaoxadiphosphacyclotetradecin-7-yl)-5-fluoro-3,7-dihydro-4H-pyrrolo[2,3-d]pyrimidin-4-one di-triethylamine Salt (Optical Isomer)], in series [1], the “activity level of test compound” value stood at 117.4% at 30 μM. The “Human plasma stability (/h)” value in series [4] is <0.01 h⁻¹.

Take `Nc1nc2c(ncn2[C@@H]2O[C@@H]3COP(=O)(O)O[C@H]4[C@@H](O)[C@H](c5cnn6c(N)ncnc56)O[C@@H]4COP(=O)(O)O[C@@H]2[C@@H]3O)c(=O)[nH]1` [Example 13, 2-amino-9-((5R,7R,8R,12aR,14S,15S,15aS,16R)-14-(4-aminopyrazolo[1,5-a][1,3,5]triazin-8-yl)-2,10,15,16-tetrahydroxy-2,10-dioxidooctahydro-12H-5,8-methanofuro[3,2-1][1,3,6,9,11,2,10]pentaoxadiphosphacyclotetradecin-7-yl)-1,9-dihydro-6H-purin-6-one di-triethylamine Salt]: in series [2], the “activity level against WT STING” value is recorded as 99%.

In the case of `Nc1ncnc2c1ncn2[C@@H]1O[C@@H]2COP(=O)(S)O[C@@H]3[C@H](O)[C@@H](COP(=O)(S)O[C@H]2[C@H]1F)O[C@H]3n1cc(F)c2c(=O)[nH]cnc21` (stereo partly drawn) [Example 14, 7-((2R,5R,7R,8R,10R,12aR,14R,15R,15aR,16R)-14-(6-amino-9H-purin-9-yl)-15-fluoro-16-hydroxy-2,10-dioxido-2,10-disulfanyloctahydro-12H-5,8-methanofuro[3,2-1][1,3,6,9,11,2,10]pentaoxadiphosphacyclotetradecin-7-yl)-5-fluoro-3,7-dihydro-4H-pyrrolo[2,3-d]pyrimidin-4-one Disodium Salt], in series [4], the “Human plasma stability (/h)” value was <0.01 h⁻¹. For the same compound, the “anti-tumor effect (tumor volume)” value in series [5] and in series [6] was “anti-tumor effects were observed” throughout.

For the compound `Nc1ncnc2c1ncn2[C@@H]1O[C@@]23CO[C@@H]1[C@@H]2OP(=O)(S)OC[C@H]1O[C@@H](n2cc(F)c4c(=O)[nH]cnc42)[C@H](OP(=O)(O)OC3)[C@@H]1O` (stereo partly drawn) [Example 17, 7-((5R,7R,8R,12aR,14R,15R,15aS,18R)-14-(6-amino-9H-purin-9-yl)-10,18-dihydroxy-2,10-dioxido-2-sulfanylhexahydro-14H-15,12a-(epoxymethano)-5,8-methanofuro[3,2-1][1,3,6,9,11,2,10]pentaoxadiphosphacyclotetradecin-7(12H)-yl)-5-fluoro-3,7-dihydro-4H-pyrrolo[2,3-d]pyrimidin-4-one di-triethylamine Salt], in series [2], the “activity level against WT STING” value was determined as 110%.

In the case of `Nc1nc2c(ncn2[C@@H]2O[C@@H]3COP(=O)(O)O[C@@H]4[C@H](O)[C@@H](COP(=O)(O)O[C@H]3[C@H]2F)O[C@H]4n2cc(F)c3c(=O)[nH]cnc32)c(=O)[nH]1` [Example 19, 2-amino-9-((5R,7R,8R,12aR,14R,15R,15aR,16R)-15-fluoro-7-(5-fluoro-4-oxo-3,4-dihydro-7H-pyrrolo[2,3-d]pyrimidin-7-yl)-2,10,16-trihydroxy-2,10-dioxidooctahydro-12H-5,8-methanofuro[3,2-1][1,3,6,9,11,2,10]pentaoxadiphosphacyclotetradecin-14-yl)-1,9-dihydro-6H-purin-6-one di-triethylamine Salt], in series [2], the “activity level against WT STING” value is reported as 101%.

For the compound `Nc1nc2c(ncn2[C@@H]2O[C@@H]3COP(=O)(O)O[C@H]4[C@@H](O)[C@H](n5cnc6c(N)ncnc65)O[C@@H]4COP(=O)(O)O[C@@H]2[C@@H]3O)c(=O)[nH]1` [cGAMP, 2′,3′-cGAMP, reference compound], the EC50 in series [3] is 18 µM. Moreover, in series [4], the “Human plasma stability (/h)” value amounted to 1.39 h⁻¹.
